The assay concerns the target T1, human CXCR3 (N-delta 4) (Homo sapiens, UniProt P49682).
T1 construct: CD8 leader (N); Flag tag; expressed in transfected cells; membrane preparation
T1 sequence (P49682 5-368 limits assumed): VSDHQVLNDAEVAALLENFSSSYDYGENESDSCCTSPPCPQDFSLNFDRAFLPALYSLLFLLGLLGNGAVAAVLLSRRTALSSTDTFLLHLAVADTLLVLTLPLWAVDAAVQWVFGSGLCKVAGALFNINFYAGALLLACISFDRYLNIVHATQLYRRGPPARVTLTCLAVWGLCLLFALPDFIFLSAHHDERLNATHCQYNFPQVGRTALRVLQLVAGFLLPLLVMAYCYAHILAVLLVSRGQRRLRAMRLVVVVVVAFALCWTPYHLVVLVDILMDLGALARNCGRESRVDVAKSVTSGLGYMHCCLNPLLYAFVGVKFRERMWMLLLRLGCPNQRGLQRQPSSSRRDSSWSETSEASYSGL
In words: Human CXCR3 (N-delta 4) scintillation proximity assay (SPA), [125I] IP-10 binding to Ba/F3-hCXCR3 membranes. Particulars: IC50 rating; [125I] IP-10 displacement, human CXCR3; read-out: IC50. Summed up: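 Membranes from Ba/F3 cells expressing Flag-tagged hCXCR3 (N-delta 4), 2 μg/point, precoupled to WGA SPA beads. Binding of 25 pM [125I] IP-10 measured with titrated compounds, 3 hr at room temperature, in HEPES buffer with CaCl2, MgCl2, NaCl and 1.0% BSA; bound tracer read by scintillation counting.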
For orientation: SPA uses beads or plates that emit light when radiolabelled molecules are held near them.

The IC50 is the concentration that gives 50% inhibition.

As for `C[C@H]1CN(c2ncc(NC(=O)c3cccnc3)cc2Cl)CCN1C1CCN(Cc2ccc(Cl)cc2)CC1` [Compound 196], the IC50 is above 100 nM.
Under `CC[C@H]1CN(c2ncc(Nc3c(C(C)C)c(=O)c3=O)cc2Cl)CCN1C1CCN(Cc2ccc(Cl)cc2F)CC1` [Compound 84] stands below 25 nM.
Under `CC[C@H]1CN(c2ncc(NC3=NS(=O)(=O)N=C3NC(CO)C(N)=O)cc2Cl)CCN1C1CCN(Cc2ccc(Cl)cc2F)CC1` (stereo partly shown) [Compound 276] stands above 100 nM.
Under `C[C@@H]1CN(c2ncc(Nc3c(NCC(F)(F)F)c(=O)c3=O)cc2Cl)[C@@H](C)CN1C1CCN(Cc2ccc3c(c2)OCO3)CC1` [Compound 120] stands above 100 nM.
`CC[C@H]1CN(c2ncc(Nc3c(NC4CC4)c(=O)c3=O)cc2Cl)CCN1C1CCN(Cc2ccc(Cl)cc2)CC1` [Compound 70]: the concentration for half-maximal inhibition (IC50) was below 25 nM.
As to `CC[C@H]1CN(c2ncc(N/C(=N/C#N)NCCO)cc2Cl)CCN1C1CCN(Cc2ccc(Cl)cc2F)CC1` [Compound 214], the concentration for half-maximal inhibition (IC50) was above 100 nM.
Under `C[C@@H]1CN(C2CCN(Cc3ccc(Cl)cc3F)CC2)[C@@H](C)CN1c1ncc(NS(C)(=O)=O)cc1Cl` [Compound 50] stands above 100 nM; under `CC[C@H]1CN(c2ncc(NC3=NS(=O)(=O)N=C3N)cc2Cl)CCN1C1CCN(Cc2ccc(OC(F)(F)F)cc2)CC1` [Compound 262], 25 to 100 nM.
The same measure for `C[C@@H]1CN(c2ncc(Nc3c(NCC(F)(F)F)c(=O)c3=O)cc2Cl)[C@@H](C)CN1C1CCN(Cc2ccc(Cl)c(Cl)c2)CC1` [Compound 124]: above 100 nM; for `CC[C@H]1CN(c2ncc(NC(C)=O)cc2Cl)CCN1C1CCN(Cc2ccc(Cl)cc2F)CC1` [Compound 177]: below 25 nM.
Under `C[C@@H]1CN(c2ncc(Nc3c(NCC(F)(F)F)c(=O)c3=O)cc2Cl)[C@@H](C)CN1C1CCN(Cc2ccc(Cl)cc2F)CC1` [Compound 89] stands below 25 nM; under `C[C@H]1CN(c2ncc(Nc3ncccn3)cc2Cl)CCN1C1CCN(Cc2ccc(Cl)cc2F)CC1` [Compound 223], above 100 nM; under `CC[C@H]1CN(c2ncc(NS(C)(=O)=O)cc2Cl)CCN1C1CCN(Cc2ccc(Cl)cc2F)CC1` [Compound 7], below 25 nM.
On to `CC[C@H]1CN(c2ncc(NC(=O)C(C)C)cc2Cl)CCN1C1CCN(Cc2ccc(Cl)cc2F)CC1` [Compound 178], for which the IC50 was below 25 nM.
For `CC[C@H]1CN(c2ncc(NC3=NS(=O)(=O)N=C3NCCNS(C)(=O)=O)cc2Cl)CCN1C1CCN(Cc2ccc(Cl)cc2F)CC1` [Compound 274], the half-maximal inhibitory concentration (IC50) was above 100 nM.
In the case of `C[C@@H]1CN(c2ncc(Nc3c(NCC(F)(F)F)c(=O)c3=O)cc2Cl)[C@@H](C)CN1C1CCN(Cc2nccs2)CC1` [Compound 152], the IC50 is above 100 nM.
The same measure for `CC[C@H]1CN(c2ncc(NC(N)=O)cc2Cl)CCN1C1CCN(Cc2ccc(Cl)cc2F)CC1` [Compound 186]: 25 to 100 nM; for `Cc1cc(Nc2c(NCC(F)(F)F)c(=O)c2=O)cnc1N1C[C@@H](C)N(C2CCN(C(=O)C3Cc4ccccc4C3)CC2)C[C@@H]1C` [Compound 166]: above 100 nM; for `CC[C@H]1CN(c2ncc(NS(C)(=O)=O)cc2Cl)CCN1C1CCN(Cc2ccc(Cl)cc2C#N)CC1` [Compound 23]: below 25 nM.
On to `CCC(C)CN1CCC(N2C[C@H](C)N(c3ncc(Nc4c(NCC(F)(F)F)c(=O)c4=O)cc3Cl)C[C@H]2C)CC1` (stereo partly shown) [Compound 132], for which the 50% inhibitory concentration (IC50) was above 100 nM.
The same measure for `CC[C@H]1CN(c2ncc(Nc3c(C(C)C)c(=O)c3=O)cc2Cl)CCN1C1CCN(Cc2ccc(OC(F)(F)F)cc2)CC1` [Compound 86]: below 25 nM.
Under `CC[C@H]1CN(c2ncc(NC(=O)NN)cc2Cl)CCN1C1CCN(Cc2ccc(Cl)cc2F)CC1` [Compound 188] stands 25 to 100 nM; under `C[C@H]1CN(c2ncc(N)cc2Cl)CCN1C1CCN(Cc2ccc(Cl)cc2)CC1` [Compound 218], above 100 nM; under `CC[C@H]1CN(c2ncc(NC3=NS(=O)(=O)N=C3NC3CC3)cc2Cl)CCN1C1CCN(Cc2ccc(Cl)cc2-c2nnc(Br)[nH]2)CC1` [Compound 270], above 100 nM.
The same measure for `C[C@@H]1CN(c2ncc(Nc3c(NCC(F)(F)F)c(=O)c3=O)cc2Cl)[C@@H](C)CN1C1CCN(Cc2cccc(Br)c2)CC1` [Compound 136]: above 100 nM.
Consider `CC[C@H]1CN(c2ncc(N(C)C)cc2Cl)CCN1C1CCN(C(CO)c2ccc(Cl)cc2)CC1` (stereo partly shown) [Compound 213], for which the half-inhibitory concentration (IC50) is 25 to 100 nM.
The same measure for `CCC(C)(C)C1CCC(N2CCC(N3C[C@H](C)N(c4ncc(Nc5c(NCC(F)(F)F)c(=O)c5=O)cc4Cl)C[C@H]3C)CC2)C1` (stereo partly shown) [Compound 171]: above 100 nM; for `CC[C@H]1CN(c2ncc(NS(C)(=O)=O)cc2Cl)CCN1C1CCN(C(C(N)=O)c2ccc(Cl)cc2)CC1` (stereo partly shown) [Compound 12]: below 25 nM.
Under `COC1CCCC(CN2CCC(N3C[C@H](C)N(c4ncc(Nc5c(NCC(F)(F)F)c(=O)c5=O)cc4Cl)C[C@H]3C)CC2)O1` (stereo partly shown) [Compound 151] stands above 100 nM.
For `C[C@H]1CN(c2ncc(NC(=O)NCc3ccccc3)cc2Cl)CCN1C1CCN(Cc2ccc(Cl)cc2)CC1` [Compound 198], the IC50 is above 100 nM.
Regarding `C[C@H]1CN(c2ncc(NS(C)(=O)=O)cc2Cl)CCN1C1CCN(Cc2ccc(OC(F)(F)F)cc2)CC1` [Compound 38], the IC50 is 25 to 100 nM.
For `CC[C@H]1CN(c2ncc(NC3=NS(=O)(=O)N=C3NC3CCC3)cc2Cl)CCN1C1CCN(Cc2ccc(Cl)cc2F)CC1` [Compound 247], the IC50 was below 25 nM.
The same measure for `C[C@H]1CN(c2ncc(NS(C)(=O)=O)cc2Cl)CCN1C1CCN(C(=O)c2ccc(Cl)cc2)CC1` [Compound 66]: above 100 nM.
For the compound `CC[C@H]1CN(c2ncc(NS(C)(=O)=O)cc2Cl)CCN1C1CCN(C(=O)c2ccc(Cl)cc2N)CC1` [Compound 24], the IC50 was 25 to 100 nM.
The same measure for `CC[C@H]1CN(c2ncc(NC(=N)N)cc2Cl)CCN1C1CCN(Cc2ccc(Cl)cc2F)CC1` [Compound 221]: above 100 nM; for `CC[C@H]1CN(c2ncc(NS(C)(=O)=O)cc2Cl)CCN1C1CCN(Cc2ccc(OC(F)F)cc2)CC1` [Compound 13]: below 25 nM; for `CC[C@H]1CN(c2ncc(NC3=NS(=O)(=O)N=C3NC3CC3)cc2Cl)CCN1C1CCN(Cc2ccc(OC(F)(F)F)cc2)CC1` [Compound 234]: below 25 nM.
The same measure for `C[C@@H]1CN(c2ncc(Nc3c(NCC(F)(F)F)c(=O)c3=O)cc2Cl)[C@@H](C)CN1C1CCN(CC(c2ccccc2)c2ccccc2)CC1` [Compound 160]: above 100 nM.
Under `CC[C@H]1CN(c2ncc(NS(C)(=O)=O)cc2Cl)CCN1C1CCN(Cc2cc3ccccc3o2)CC1` [Compound 48] stands above 100 nM.
As to `CC[C@H]1CN(c2ncc(NC3=NS(=O)(=O)N=C3NC(C)C)cc2Cl)CCN1C1CCN(Cc2ccc(Cl)cc2F)CC1` [Compound 243], the 50% inhibitory concentration (IC50) is below 25 nM.
Under `Cc1cc(Nc2c(NCC(F)(F)F)c(=O)c2=O)cnc1N1C[C@@H](C)N(C2CCN(C(=O)c3ccc(C(F)(F)F)cc3)CC2)C[C@@H]1C` [Compound 164] stands above 100 nM; under `C[C@@H]1CN(c2ncc(Nc3c(NCC(F)(F)F)c(=O)c3=O)cc2Cl)[C@@H](C)CN1C1CCN(CCC(C)(C)C)CC1` [Compound 150], above 100 nM.
Turning to `CC[C@H]1CN(c2ncc([N+](=O)[O-])cc2Cl)CCN1C1CCN(Cc2ccc(Cl)cc2F)CC1` [Compound 212], the concentration for half-maximal inhibition (IC50) fell in the range of 25 to 100 nM.
Under `CC[C@H]1CN(c2ncc(N(Cc3ccc(C#N)cc3)c3c(C(C)C)c(=O)c3=O)cc2Cl)CCN1C1CCN(Cc2ccc(C#N)cc2)CC1` [Compound 148] stands above 100 nM; under `CC[C@H]1CN(c2ncc(NS(C)(=O)=O)cc2Cl)CCN1C1CCN(Cc2ccsc2)CC1` [Compound 60], above 100 nM.
`C[C@@H]1CN(c2ncc(Nc3c(NCC(F)(F)F)c(=O)c3=O)cc2Cl)[C@@H](C)CN1C1CCN(C2CCCC(C(F)(F)F)C2)CC1` (stereo partly shown) [Compound 172]: the IC50 was above 100 nM.
`CC[C@H]1CN(c2ncc(NS(C)(=O)=O)cc2Cl)CCN1C1CCN(C(=O)c2ccc(Cl)cc2)CC1` [Compound 51]: the half-maximal inhibitory concentration (IC50) was above 100 nM.
The same measure for `CC[C@H]1CN(c2ncc(Nc3c(NCC(F)(F)F)c(=O)c3=O)cc2Cl)CCN1C1CCN(C(CO)c2ccc(Cl)cc2)CC1` (stereo partly shown) [Compound 85]: below 25 nM; for `CC[C@H]1CN(c2ncc(NC(=O)Oc3ccccc3)cc2Cl)CCN1C1CCN(Cc2ccc(Cl)cc2F)CC1` [Compound 189]: 25 to 100 nM.
Take `CCNC(=O)Nc1cnc(N2CCN(C3CCN(Cc4ccc(Cl)cc4F)CC3)[C@@H](CC)C2)c(Cl)c1` [Compound 183]: the IC50 was below 25 nM.
The same measure for `C[C@@H]1CN(c2ncc(Nc3c(NCC(F)(F)F)c(=O)c3=O)cc2Cl)[C@@H](C)CN1C1CCN(C2CCC(c3ccccc3)CC2)CC1` (stereo partly shown) [Compound 146]: above 100 nM; for `C[C@@H]1CN(C2CCN(Cc3ccc(Cl)cc3F)CC2)[C@@H](C)CN1c1ncc(Nc2c(NC3CC3)c(=O)c2=O)cc1Cl` [Compound 90]: below 25 nM.
For the compound `CC[C@H]1CN(c2ncc(NC3=NS(=O)(=O)N=C3N3CCC3)cc2Cl)CCN1C1CCN(Cc2ccc(Cl)cc2F)CC1` [Compound 254], the IC50 was below 25 nM.
Under `CC[C@H]1CN(c2ncc(NS(C)(=O)=O)cc2Cl)CCN1C1CCN(Cc2ccc(Cl)cc2-c2nnn[nH]2)CC1` [Compound 36] stands 25 to 100 nM; under `C[C@@H]1CN(c2ncc(Nc3c(NCC(F)(F)F)c(=O)c3=O)cc2Cl)[C@@H](C)CN1C1CCN(Cc2csc3ccccc23)CC1` [Compound 156], above 100 nM.
